The text below walks through data of PubChem BioAssay (NCI).

Structures are written as SMILES.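 In this assay, cells in 96-well plates receive the compound at five concentrations for 48 hours. Endpoints are linearly interpolated between the surrounding concentrations. Abbreviation: GI50, concentration required for 50% inhibition of growth. TGI denotes the concentration required for complete inhibition of growth.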 A value given as a limit tells only on which side of the number the result lay.

Test systems include HCT-15 colon; OVCAR-5 ovarian; SK-MEL-5 melanoma; BT-549 breast; TK-10 renal; OVCAR-8 ovarian; OVCAR-4 ovarian; SK-OV-3 ovarian.
Holding throughout (assay): NCI tumour cell line growth inhibition, 48 h

With `O=C(Nc1nc(-c2ccc(Cl)cc2)cs1)c1ccc(O)c(O)c1`, the GI50 is 3.14 µM in the assay with HCT-15 colon; 14.7 µM with OVCAR-5 ovarian; 2.98 µM with SK-MEL-5 melanoma; 3.49 µM in the assay with BT-549 breast; 2.87 µM in the assay with TK-10 renal; 4.14 µM with OVCAR-8 ovarian. For the same compound, the GI50 in the assay with OVCAR-4 ovarian was 4.33 µM; in the assay on SK-OV-3 ovarian it was 6.83 µM. Moreover, the TGI stood at 18.3 µM with HCT-15 colon; 36.1 µM in the assay on OVCAR-5 ovarian; 12 µM in the assay with SK-MEL-5 melanoma; 17.9 µM in the assay with BT-549 breast; 9.98 µM in the assay with TK-10 renal; 16.7 µM in the assay with OVCAR-8 ovarian. The TGI worked out at 35.9 µM in the assay on OVCAR-4 ovarian and 22.4 µM with SK-OV-3 ovarian.

On to `COc1cc2c3c(n(CCCn4ccnc4)c(=O)c2cc1OC)-c1ccccc1C3=O`, for which the GI50 in the assay with HCT-15 colon was 0.159 µM; with OVCAR-5 ovarian it was 0.26 µM; with SK-MEL-5 melanoma it was under 0.0333 µM; in the assay on BT-549 breast, 0.0623 µM; with TK-10 renal, 0.923 µM; with OVCAR-8 ovarian, 0.0584 µM. The GI50 is 0.468 µM in the assay on OVCAR-4 ovarian and 1.13 µM in the assay on SK-OV-3 ovarian. Besides, the TGI in the assay on HCT-15 colon is 2.37 µM; in the assay with OVCAR-5 ovarian it was 1.25 µM; with SK-MEL-5 melanoma it was 0.0861 µM; in the assay on BT-549 breast, 30.7 µM; with TK-10 renal, 27.5 µM; in the assay with OVCAR-8 ovarian, 4.84 µM. This compound registered a TGI with OVCAR-4 ovarian of 22.4 µM.

For the compound `O=C(Nc1cccc(-c2nc3ccccc3[nH]2)c1)c1cccc(NC(=O)c2ccco2)c1`, the GI50 is 3.06 µM in the assay on HCT-15 colon; 3.1 µM with OVCAR-5 ovarian; 1.89 µM in the assay on SK-MEL-5 melanoma; 1.85 µM in the assay with BT-549 breast; 2.88 µM in the assay on TK-10 renal; 2.18 µM with OVCAR-8 ovarian. Also, the GI50 in the assay with OVCAR-4 ovarian was 1.73 µM; in the assay with SK-OV-3 ovarian, 2.35 µM. For the same compound, the TGI is 10.8 µM in the assay on HCT-15 colon; 11.1 µM with OVCAR-5 ovarian; 4.1 µM in the assay on SK-MEL-5 melanoma; 3.92 µM in the assay with BT-549 breast; 6.66 µM with TK-10 renal; 5.14 µM with OVCAR-8 ovarian. For the same compound, the TGI stood at 3.1 µM with OVCAR-4 ovarian and 4.42 µM with SK-OV-3 ovarian.

Regarding `COc1cc(N)ccc1Nc1c2ccccc2nc2ccccc12`, the GI50 with HCT-15 colon was 2.86 µM; in the assay on OVCAR-5 ovarian it was 15 µM; in the assay on SK-MEL-5 melanoma it was 7.52 µM; with BT-549 breast it was 15.3 µM; in the assay on TK-10 renal it was 14.6 µM; in the assay on OVCAR-8 ovarian, 10.2 µM. Further, the GI50 was 10.6 µM in the assay on OVCAR-4 ovarian and 12.5 µM in the assay with SK-OV-3 ovarian. In addition, the TGI came to 12 µM in the assay on HCT-15 colon; 29.9 µM in the assay with OVCAR-5 ovarian; 21.5 µM with SK-MEL-5 melanoma; 32.4 µM with BT-549 breast; 30.2 µM in the assay on TK-10 renal; 36 µM in the assay on OVCAR-8 ovarian. For the same compound, the TGI in the assay with OVCAR-4 ovarian is over 45.6 µM; with SK-OV-3 ovarian, 29.4 µM.

Consider `CN1CCN(Cc2ccc(NC(=O)c3[nH]ncc3Nc3ccnc4ccsc34)cc2)CC1`, for which the GI50 with HCT-15 colon was 3.25 µM; with OVCAR-5 ovarian, 4.08 µM; in the assay with SK-MEL-5 melanoma, 2.48 µM; in the assay on BT-549 breast it was 4.3 µM; with TK-10 renal it was 4.97 µM; in the assay with OVCAR-8 ovarian, 3.63 µM. In addition, the figures for the GI50 with OVCAR-4 ovarian and with SK-OV-3 ovarian were 2.32 µM and 1.05 µM, respectively. The TGI is 16.1 µM in the assay on HCT-15 colon; 14.7 µM with OVCAR-5 ovarian; 11.5 µM in the assay with SK-MEL-5 melanoma; 15.9 µM in the assay on BT-549 breast; 23.1 µM in the assay with TK-10 renal; 16.4 µM in the assay with OVCAR-8 ovarian. Moreover, the TGI in the assay with OVCAR-4 ovarian stood at 7.47 µM; in the assay on SK-OV-3 ovarian, 23.5 µM.

For `C=C1C(=O)O[C@H]2[C@H]1CC/C(COC(=O)N[C@@H](Cc1c[nH]c3ccccc13)C(=O)OC)=C\CC[C@@]1(C)O[C@@H]21`, the GI50 in the assay with HCT-15 colon is 1.45 µM; with OVCAR-5 ovarian, 2.02 µM; in the assay on SK-MEL-5 melanoma, 1.68 µM; in the assay with BT-549 breast, 1.84 µM; in the assay on TK-10 renal it was 1.72 µM; in the assay on OVCAR-8 ovarian, 2.62 µM. Further, the GI50 in the assay with OVCAR-4 ovarian was 2.03 µM; in the assay on SK-OV-3 ovarian, 12 µM. The TGI in the assay with HCT-15 colon was 3.91 µM; in the assay on OVCAR-5 ovarian, 4.92 µM; in the assay with SK-MEL-5 melanoma it was 3.26 µM; with BT-549 breast, 3.79 µM; in the assay with TK-10 renal, 3.19 µM; with OVCAR-8 ovarian, 10.3 µM. Further, the TGI was determined as 5.62 µM with OVCAR-4 ovarian and 24.6 µM in the assay with SK-OV-3 ovarian.

On to `COc1ccc2c(c1)C(=O)c1c-2c(N2CCN(C(=O)CN(C)C)CC2)nc2ccccc12`, for which the GI50 in the assay on HCT-15 colon is 14.4 µM; with OVCAR-5 ovarian, 28.8 µM; in the assay with SK-MEL-5 melanoma, 18.2 µM; with BT-549 breast, 14.5 µM; in the assay on TK-10 renal, 14.1 µM; in the assay with OVCAR-8 ovarian, 24.7 µM. Further, the GI50 with OVCAR-4 ovarian is 13 µM; in the assay with SK-OV-3 ovarian it was 19.6 µM. The TGI in the assay with HCT-15 colon was 32.3 µM; in the assay with OVCAR-5 ovarian, 67.3 µM; in the assay with SK-MEL-5 melanoma, 34.6 µM; in the assay on BT-549 breast, 33.5 µM; in the assay with TK-10 renal, 37.6 µM; in the assay with OVCAR-8 ovarian it was over 100 µM. The TGI is 29.5 µM with OVCAR-4 ovarian and over 100 µM with SK-OV-3 ovarian.

Consider `C=C1C(=O)O[C@H]2[C@H]1CC/C(COC(=O)NCCc1c[nH]c3ccccc13)=C\CC[C@@]1(C)O[C@@H]21`, for which the GI50 in the assay on HCT-15 colon was 1.23 µM; in the assay with OVCAR-5 ovarian, 2.3 µM; with SK-MEL-5 melanoma, 2.44 µM; with BT-549 breast, 1.27 µM; in the assay with TK-10 renal, 1.92 µM; in the assay on OVCAR-8 ovarian it was 1.86 µM. Further, the GI50 in the assay on OVCAR-4 ovarian is 2.96 µM; with SK-OV-3 ovarian, 12.5 µM. Further, the TGI with HCT-15 colon turned out to be 2.81 µM; with OVCAR-5 ovarian it was 5.75 µM; in the assay on SK-MEL-5 melanoma, 5.95 µM; in the assay on BT-549 breast, 2.82 µM; in the assay with TK-10 renal, 3.55 µM; in the assay on OVCAR-8 ovarian, 5.21 µM. The TGI with OVCAR-4 ovarian came out at 13.1 µM; with SK-OV-3 ovarian, 25.1 µM.

As for `c1cncc(-c2cc(-c3cc(-c4cccnc4)n[nH]3)[nH]n2)c1`, the TGI in the assay on HCT-15 colon, with OVCAR-5 ovarian, in the assay on SK-MEL-5 melanoma, in the assay on BT-549 breast, with TK-10 renal and with OVCAR-8 ovarian was over 100 µM in each case. Further, the TGI in the assay with OVCAR-4 ovarian and in the assay with SK-OV-3 ovarian was over 100 µM throughout.
